From PMC6616564, “Identification of ryuvidine as a KDM5A inhibitor” (Scientific Reports, 2019)
Like-named read-outs stand apart in the source and are kept apart here.

Assays:
Assay type in all cases: biochemical
[1] = biological target: T1, KDM5A (His-tagged KDM5A 1-797) (Homo sapiens, UniProt P29375); experiment: AlphaScreen H3K4me3 demethylation
T1 construct: residues 1-797, C-terminally truncated, N-terminal His6 tag, Sf9 baculovirus, HisTrap purified
T1 sequence (P29375 1-797): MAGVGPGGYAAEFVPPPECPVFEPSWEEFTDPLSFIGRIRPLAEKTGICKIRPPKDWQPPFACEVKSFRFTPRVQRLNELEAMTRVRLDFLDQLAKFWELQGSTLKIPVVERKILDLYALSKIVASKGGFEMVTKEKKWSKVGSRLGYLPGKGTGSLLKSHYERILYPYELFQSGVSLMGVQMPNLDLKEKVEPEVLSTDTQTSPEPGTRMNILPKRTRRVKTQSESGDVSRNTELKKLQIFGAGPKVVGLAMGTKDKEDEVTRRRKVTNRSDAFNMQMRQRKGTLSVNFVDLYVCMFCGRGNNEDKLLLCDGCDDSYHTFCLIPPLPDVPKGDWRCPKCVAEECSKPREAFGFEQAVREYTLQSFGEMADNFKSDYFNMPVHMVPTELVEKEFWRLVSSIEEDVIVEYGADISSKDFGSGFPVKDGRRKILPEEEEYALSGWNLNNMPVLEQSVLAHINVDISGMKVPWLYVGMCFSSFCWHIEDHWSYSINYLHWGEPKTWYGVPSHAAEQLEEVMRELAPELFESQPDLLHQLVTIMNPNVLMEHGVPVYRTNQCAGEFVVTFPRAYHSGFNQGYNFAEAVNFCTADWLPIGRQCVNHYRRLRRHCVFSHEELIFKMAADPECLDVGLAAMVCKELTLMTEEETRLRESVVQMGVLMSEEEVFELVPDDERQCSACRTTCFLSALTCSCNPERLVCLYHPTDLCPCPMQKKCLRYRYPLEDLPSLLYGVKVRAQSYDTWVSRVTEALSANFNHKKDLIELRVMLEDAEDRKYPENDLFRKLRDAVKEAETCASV
Source text: AlphaScreen H3K4me3 demethylation on KDM5A (His-tagged KDM5A 1-797)

[2] = biological target: T2, LSD2 (His-tagged ΔN25 human LSD2) (Homo sapiens, UniProt Q8NB78); experiment: MALDI-TOF MS demethylation assay; conditions: no inhibition at 50 μM; 10 μM H3K4me2 peptide, pH 8.5, 37 °C
T2 construct: gene KDM1B
T2 sequence (Q8NB78 26-822): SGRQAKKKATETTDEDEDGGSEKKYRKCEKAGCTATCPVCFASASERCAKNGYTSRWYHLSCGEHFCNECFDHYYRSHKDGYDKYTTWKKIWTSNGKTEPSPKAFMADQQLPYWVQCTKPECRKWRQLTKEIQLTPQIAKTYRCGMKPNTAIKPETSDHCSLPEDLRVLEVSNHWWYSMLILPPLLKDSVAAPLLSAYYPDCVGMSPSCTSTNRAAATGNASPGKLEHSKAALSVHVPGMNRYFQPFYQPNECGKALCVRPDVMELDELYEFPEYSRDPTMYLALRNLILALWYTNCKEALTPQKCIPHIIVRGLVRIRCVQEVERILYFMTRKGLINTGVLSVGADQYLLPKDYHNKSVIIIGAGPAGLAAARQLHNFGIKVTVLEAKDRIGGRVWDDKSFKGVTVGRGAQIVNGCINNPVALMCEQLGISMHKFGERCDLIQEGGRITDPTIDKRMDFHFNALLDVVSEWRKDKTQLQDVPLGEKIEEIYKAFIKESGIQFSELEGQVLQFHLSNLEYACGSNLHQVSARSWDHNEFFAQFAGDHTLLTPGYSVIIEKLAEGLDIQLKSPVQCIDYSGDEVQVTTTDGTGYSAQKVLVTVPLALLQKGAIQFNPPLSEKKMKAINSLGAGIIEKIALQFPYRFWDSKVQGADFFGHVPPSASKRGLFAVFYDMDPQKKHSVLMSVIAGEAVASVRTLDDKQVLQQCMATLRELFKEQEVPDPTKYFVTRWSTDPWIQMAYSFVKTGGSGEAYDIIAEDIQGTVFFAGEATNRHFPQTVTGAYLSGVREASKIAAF
Source text: MALDI-TOF MS demethylation assay on LSD2 (His-tagged ΔN25 human LSD2)

[3] = biological target: T3, KDM5B (His-tagged KDM5B 1-769) (Homo sapiens, UniProt Q9UGL1); experiment: MALDI-TOF MS demethylation assay
T3 construct: residues 1-769, C-terminally truncated, N-terminal His6 tag, Sf9 baculovirus, HisTrap purified
T3 sequence (Q9UGL1 1-769): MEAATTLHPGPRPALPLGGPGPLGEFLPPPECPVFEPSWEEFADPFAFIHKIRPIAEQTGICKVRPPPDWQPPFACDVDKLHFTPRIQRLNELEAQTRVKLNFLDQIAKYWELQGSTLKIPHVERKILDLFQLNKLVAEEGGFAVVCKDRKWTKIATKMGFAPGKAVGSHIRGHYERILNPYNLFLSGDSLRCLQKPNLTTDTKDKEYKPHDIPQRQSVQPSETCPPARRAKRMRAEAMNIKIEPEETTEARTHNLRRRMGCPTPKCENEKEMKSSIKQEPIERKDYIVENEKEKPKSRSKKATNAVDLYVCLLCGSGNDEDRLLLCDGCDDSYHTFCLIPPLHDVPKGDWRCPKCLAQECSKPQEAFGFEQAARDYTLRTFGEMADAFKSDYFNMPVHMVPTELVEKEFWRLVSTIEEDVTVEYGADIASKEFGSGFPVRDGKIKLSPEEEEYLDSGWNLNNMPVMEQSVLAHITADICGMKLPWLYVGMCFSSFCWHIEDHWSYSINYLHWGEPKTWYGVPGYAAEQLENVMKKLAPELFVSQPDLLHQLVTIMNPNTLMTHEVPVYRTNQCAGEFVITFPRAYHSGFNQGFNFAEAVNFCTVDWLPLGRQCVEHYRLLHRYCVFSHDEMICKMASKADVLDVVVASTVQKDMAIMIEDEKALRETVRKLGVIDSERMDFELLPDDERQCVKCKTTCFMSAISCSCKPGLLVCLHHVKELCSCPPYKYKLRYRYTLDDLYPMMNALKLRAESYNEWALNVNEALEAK
Source text: MALDI-TOF MS demethylation assay on KDM5B (His-tagged KDM5B 1-769)

[4] = biological target: T4, KDM5C (His-tagged KDM5C 1-839) (Homo sapiens, UniProt P41229); experiment: MALDI-TOF MS demethylation assay
T4 construct: residues 1-839, C-terminally truncated, N-terminal His6 tag, Sf9 baculovirus, HisTrap purified
T4 sequence (P41229 1-839): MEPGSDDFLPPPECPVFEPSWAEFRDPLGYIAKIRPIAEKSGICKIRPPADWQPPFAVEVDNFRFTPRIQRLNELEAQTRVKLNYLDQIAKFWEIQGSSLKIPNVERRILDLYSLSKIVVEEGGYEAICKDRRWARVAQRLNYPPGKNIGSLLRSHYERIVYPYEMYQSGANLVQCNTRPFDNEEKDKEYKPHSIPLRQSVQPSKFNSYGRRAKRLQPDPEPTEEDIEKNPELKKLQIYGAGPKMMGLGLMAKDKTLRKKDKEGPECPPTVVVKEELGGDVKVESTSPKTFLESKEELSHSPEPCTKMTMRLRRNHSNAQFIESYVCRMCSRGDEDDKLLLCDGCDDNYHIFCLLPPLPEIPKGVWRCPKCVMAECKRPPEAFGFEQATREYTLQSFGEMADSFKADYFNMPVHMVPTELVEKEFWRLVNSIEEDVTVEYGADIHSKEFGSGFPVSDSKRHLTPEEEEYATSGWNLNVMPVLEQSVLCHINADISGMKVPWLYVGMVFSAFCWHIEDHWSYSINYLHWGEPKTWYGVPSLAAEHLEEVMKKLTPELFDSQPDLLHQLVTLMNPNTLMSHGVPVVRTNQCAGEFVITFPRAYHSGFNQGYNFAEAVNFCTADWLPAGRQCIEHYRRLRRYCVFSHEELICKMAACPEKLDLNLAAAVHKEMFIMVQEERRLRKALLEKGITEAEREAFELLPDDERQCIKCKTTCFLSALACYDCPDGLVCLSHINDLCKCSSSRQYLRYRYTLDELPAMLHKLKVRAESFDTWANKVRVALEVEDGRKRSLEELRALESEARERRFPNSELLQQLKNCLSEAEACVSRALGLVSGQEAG
Source text: MALDI-TOF MS demethylation assay on KDM5C (His-tagged KDM5C 1-839)

[5] = biological target: T5, LSD1 (His-tagged human full-length LSD1) (Homo sapiens, UniProt O60341); experiment: MALDI-TOF MS demethylation assay; conditions: no inhibition at 50 μM; 30 μM H3K4me2 peptide, pH 7.5, 37 °C
T5 construct: gene KDM1A
Source text: MALDI-TOF MS demethylation assay on LSD1 (His-tagged human full-length LSD1)

SMILES | IC50 ([1]; read-out: IC50 (μM)^a) [µM] | further results
CC1(C)C(=O)N=C2C1=C(O)C(=O)c1ccccc12 [BVT948] | 2.6 | –
CN(C)c1ccc2nc3ccc(=[N+](C)C)cc-3sc2c1 [Methylene Blue] | 1.1 | –
O=C1C(SCCO)=C(SCCO)C(=O)c2ccccc21 [NSC95397] | 0.055 | –
O=[N+]([O-])c1ccc(O)c2ncccc12 [Nitroxoline] | 5 | –
Nc1ccc2cc3ccc(N)cc3nc2c1 [Proflavine Hemisulfate] | 1.8 | –
Cc1ccc(NC2=CC(=O)c3sc(C)nc3C2=O)cc1 [Ryuvidine] | 1.4 | IC50 [2]: > 50000 nM; IC50 [3]: 26 ± 10 nM; IC50 [4]: 8730 ± 1800 nM; IC50 [5]: > 50000 nM
C[CH2][Hg][S]c1ccccc1C(=O)O [Thimerosal] | – | IC50 [1]: 0.13 µM
Cc1cc2nc3ccc(N(C)C)cc3[s+]c2cc1N [Tolonium Chloride] | 1.7 | –
